# Results as given in the supplement of paper PMC10307832.
# What was measured:
# Assay in all cases: relative viability (nuclei count vs DMSO), 5 days (fraction); higher = more cells survive
# LCLC-103H = tested on: LCLC-103H
# Procedure, shortened: (§1)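 Lung cancer cell lines in 1536-well plates got either a single drug or a fixed anchor-drug dose together with five library-drug doses (not always all listed) in √10 steps, by pin tool, on the day after seeding. Nuclei were counted after 5 days, and relative viability is the treated-to-vehicle ratio of nuclei counts. Values are medians of duplicate plates.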
# HCC-827 = tested on: HCC-827
# Procedure, shortened: as §1
# HCC-44 = tested on: HCC-44
# Procedure, shortened: as §1
# NCI-H1944 = tested on: NCI-H1944
# Procedure, shortened: as §1
# NCI-H1666 = tested on: NCI-H1666
# Procedure, shortened: as §1
# ABC-1 = tested on: ABC-1
# Procedure, shortened: as §1
# LXF-289 = tested on: LXF-289
# Procedure, shortened: as §1
# CAL-12T = tested on: CAL-12T
# Procedure, shortened: as §1
# RERF-LC-KJ = tested on: RERF-LC-KJ
# Procedure, shortened: as §1
# NCI-H1793 = tested on: NCI-H1793
# Procedure, shortened: as §1
# NCI-H1755 = tested on: NCI-H1755
# Procedure, shortened: as §1
# SK-LU-1 = tested on: SK-LU-1
# Procedure, shortened: as §1
# NCI-H1395 = tested on: NCI-H1395
# Procedure, shortened: as §1
# LU99A = tested on: LU99A
# Procedure, shortened: as §1
# NCI-H2126 = tested on: NCI-H2126
# Procedure, shortened: as §1
# NCI-H2347 = tested on: NCI-H2347
# Procedure, shortened: as §1
# NCI-H3122 = tested on: NCI-H3122
# Procedure, shortened: as §1
# NCI-H1792 = tested on: NCI-H1792
# Procedure, shortened: as §1
# NCI-H322M = tested on: NCI-H322M
# Procedure, shortened: as §1
# NCI-H358 = tested on: NCI-H358
# Procedure, shortened: as §1
# NCI-H520 = tested on: NCI-H520
# Procedure, shortened: as §1
# ChaGo-K-1 = tested on: ChaGo-K-1
# Procedure, shortened: as §1
smiles,measurement,setting,value
CCNC(=O)c1noc(-c2cc(C(C)C)c(O)cc2O)c1-c1ccc(CN2CCOCC2)cc1 [Luminespib] + CC(=O)c1c(C)c2cnc(Nc3ccc(N4CCNCC4)cn3)nc2n(C2CCCC2)c1=O [Palbociclib] (partner 0.5 µM),relative viability,LCLC-103H; first compound 0.002 µM,0.481
same,relative viability,LCLC-103H; first compound 0.006325 µM,0.454
same,relative viability,LCLC-103H; first compound 0.02 µM,0.447
same,relative viability,LCLC-103H; first compound 0.06325 µM,0.469
same,relative viability,LCLC-103H; first compound 0.2 µM,0.468
same,relative viability,HCC-827; first compound 0.002 µM,0.492
same,relative viability,HCC-827; first compound 0.006325 µM,0.473
same,relative viability,HCC-827; first compound 0.02 µM,0.326
same,relative viability,HCC-827; first compound 0.06325 µM,0.178
same,relative viability,HCC-827; first compound 0.2 µM,0.148
same,relative viability,HCC-44; first compound 0.002 µM,0.942
same,relative viability,HCC-44; first compound 0.006325 µM,0.998
same,relative viability,HCC-44; first compound 0.02 µM,1.09
same,relative viability,HCC-44; first compound 0.06325 µM,0.986
same,relative viability,HCC-44; first compound 0.2 µM,0.858
same,relative viability,NCI-H1944; first compound 0.002 µM,0.309
same,relative viability,NCI-H1944; first compound 0.006325 µM,0.389
same,relative viability,NCI-H1944; first compound 0.02 µM,0.249
same,relative viability,NCI-H1944; first compound 0.06325 µM,0.316
same,relative viability,NCI-H1944; first compound 0.2 µM,0.303
same,relative viability,NCI-H1666; first compound 0.002 µM,0.647
same,relative viability,NCI-H1666; first compound 0.006325 µM,0.67
same,relative viability,NCI-H1666; first compound 0.02 µM,0.673
same,relative viability,NCI-H1666; first compound 0.06325 µM,0.705
same,relative viability,NCI-H1666; first compound 0.2 µM,0.655
same,relative viability,ABC-1; first compound 0.002 µM,0.925
same,relative viability,ABC-1; first compound 0.006325 µM,0.876
same,relative viability,ABC-1; first compound 0.02 µM,0.494
same,relative viability,ABC-1; first compound 0.06325 µM,0.286
same,relative viability,ABC-1; first compound 0.2 µM,0.245
same,relative viability,LXF-289; first compound 0.002 µM,0.582
same,relative viability,LXF-289; first compound 0.006325 µM,0.569
same,relative viability,LXF-289; first compound 0.02 µM,0.601
same,relative viability,LXF-289; first compound 0.06325 µM,0.574
same,relative viability,LXF-289; first compound 0.2 µM,0.535
same,relative viability,CAL-12T; first compound 0.002 µM,0.601
same,relative viability,CAL-12T; first compound 0.006325 µM,0.467
same,relative viability,CAL-12T; first compound 0.02 µM,0.161
same,relative viability,CAL-12T; first compound 0.06325 µM,0.11
same,relative viability,CAL-12T; first compound 0.2 µM,0.0956
same,relative viability,RERF-LC-KJ; first compound 0.002 µM,1.04
same,relative viability,RERF-LC-KJ; first compound 0.006325 µM,1.01
same,relative viability,RERF-LC-KJ; first compound 0.02 µM,1.02
same,relative viability,RERF-LC-KJ; first compound 0.06325 µM,0.269
same,relative viability,RERF-LC-KJ; first compound 0.2 µM,0.227
same,relative viability,NCI-H1793; first compound 0.002 µM,0.306
same,relative viability,NCI-H1793; first compound 0.006325 µM,0.334
same,relative viability,NCI-H1793; first compound 0.02 µM,0.211
same,relative viability,NCI-H1793; first compound 0.06325 µM,0.151
same,relative viability,NCI-H1793; first compound 0.2 µM,0.165
same,relative viability,NCI-H1755; first compound 0.002 µM,0.51
same,relative viability,NCI-H1755; first compound 0.006325 µM,0.474
same,relative viability,NCI-H1755; first compound 0.02 µM,0.44
same,relative viability,NCI-H1755; first compound 0.06325 µM,0.462
same,relative viability,NCI-H1755; first compound 0.2 µM,0.373
same,relative viability,SK-LU-1; first compound 0.002 µM,0.456
same,relative viability,SK-LU-1; first compound 0.006325 µM,0.318
same,relative viability,SK-LU-1; first compound 0.02 µM,0.294
same,relative viability,SK-LU-1; first compound 0.06325 µM,0.186
same,relative viability,SK-LU-1; first compound 0.2 µM,0.194
same,relative viability,NCI-H1395; first compound 0.002 µM,0.645
same,relative viability,NCI-H1395; first compound 0.006325 µM,0.631
same,relative viability,NCI-H1395; first compound 0.02 µM,0.498
same,relative viability,NCI-H1395; first compound 0.06325 µM,0.338
same,relative viability,NCI-H1395; first compound 0.2 µM,0.344
same,relative viability,LU99A; first compound 0.002 µM,0.369
same,relative viability,LU99A; first compound 0.006325 µM,0.379
same,relative viability,LU99A; first compound 0.02 µM,0.272
same,relative viability,LU99A; first compound 0.06325 µM,0.428
same,relative viability,LU99A; first compound 0.2 µM,0.417
same,relative viability,NCI-H2126; first compound 0.002 µM,0.337
same,relative viability,NCI-H2126; first compound 0.006325 µM,0.325
same,relative viability,NCI-H2126; first compound 0.06325 µM,0.351
same,relative viability,NCI-H2126; first compound 0.2 µM,0.393
same,relative viability,NCI-H2347; first compound 0.002 µM,0.37
same,relative viability,NCI-H2347; first compound 0.006325 µM,0.408
same,relative viability,NCI-H2347; first compound 0.02 µM,0.38
same,relative viability,NCI-H2347; first compound 0.06325 µM,0.384
same,relative viability,NCI-H2347; first compound 0.2 µM,0.301
same,relative viability,NCI-H3122; first compound 0.002 µM,0.173
same,relative viability,NCI-H3122; first compound 0.006325 µM,0.233
same,relative viability,NCI-H3122; first compound 0.02 µM,0.173
same,relative viability,NCI-H3122; first compound 0.06325 µM,0.197
same,relative viability,NCI-H3122; first compound 0.2 µM,0.196
same,relative viability,NCI-H1792; first compound 0.002 µM,0.691
same,relative viability,NCI-H1792; first compound 0.006325 µM,0.655
same,relative viability,NCI-H1792; first compound 0.02 µM,0.622
same,relative viability,NCI-H1792; first compound 0.06325 µM,0.316
same,relative viability,NCI-H1792; first compound 0.2 µM,0.278
same,relative viability,NCI-H322M; first compound 0.002 µM,0.406
same,relative viability,NCI-H322M; first compound 0.006325 µM,0.471
same,relative viability,NCI-H322M; first compound 0.02 µM,0.448
same,relative viability,NCI-H322M; first compound 0.06325 µM,0.427
same,relative viability,NCI-H322M; first compound 0.2 µM,0.382
same,relative viability,NCI-H358; first compound 0.002 µM,0.135
same,relative viability,NCI-H358; first compound 0.006325 µM,0.132
same,relative viability,NCI-H358; first compound 0.02 µM,0.102
same,relative viability,NCI-H358; first compound 0.06325 µM,0.0751
same,relative viability,NCI-H358; first compound 0.2 µM,0.0736
same,relative viability,NCI-H520; first compound 0.002 µM,0.301
same,relative viability,NCI-H520; first compound 0.006325 µM,0.213
same,relative viability,NCI-H520; first compound 0.02 µM,0.176
same,relative viability,NCI-H520; first compound 0.06325 µM,0.121
same,relative viability,NCI-H520; first compound 0.2 µM,0.135
same,relative viability,ChaGo-K-1; first compound 0.002 µM,0.813
same,relative viability,ChaGo-K-1; first compound 0.006325 µM,0.888
same,relative viability,ChaGo-K-1; first compound 0.02 µM,0.963
same,relative viability,ChaGo-K-1; first compound 0.06325 µM,0.925
same,relative viability,ChaGo-K-1; first compound 0.2 µM,0.82
